Measurements reported in article PMC7481839, “Switchable foldamer ion channels with antibacterial activity” (Chemical Science, 2020).
Like-named read-outs stand apart in the source and are kept apart here.

Assays:
[1] = Lucigenin assay of Cl− transport in vesicles; format: biochemical; settings: 100 µM compound, interior NaNO3 200 mM, exterior NaCl (2 M), 25°C, first-order curve fit
Method: To confirm that chloride could pass through the bilayers, lucigenin assays[5a] were performed for 2, Cu(II)[1]Cl2 and Cu(II)[2]Cl2 (Fig. 5 and ESI, Fig. S10 ^†). The same lipids were used as for the HPTS assays and lucigenin was encapsulated with NaNO3 in the vesicles.
Figure S9: Ionophoric activity determined through an HPTS assay in the presence of NaCl (100 mM) for: 2 (10 µM) in the absence (pink inverted triangles) and presence of FCCP (20 µM, blue triangles) and Cu(II)[2]Cl2 (6 µM) in the absence (red circles) and presence of FCCP (20 µM, black squares). Base pulse at 1 min, TX-100 added at 7 min.
5.4 Preparation of large unilamellar vesicles for lucigenin assays […]
Lucigenin assays procedure and fluorescence normalisation were developed by a modification of published methods.10 An aliquot of the vesicle stock solution (100 μL) w as diluted to 1.9 mL with 200 mM NaNO 3 in water (pH = 7.4) (final lipid co ncentration in cuvette 0.762 mM). […] The cuvette was then placed into a Varian Cary Eclipse fluorescence spectrophotometer in the moderate stirring mode. The fluorescence emission at 505 nm was observed, resulting from excitation at 455 nm, over a period of seven minutes (420 seconds) at 25°C. […] The change in fluorescence was followed for six minutes before final lysis of the vesicles at seven minutes (420 s) by adding an aliquot of a 10 % v/v solution of Triton X-100 […]

[2] = system: B. megaterium strain DSM319; experiment: Antimicrobial assay: minimum inhibitory concentration (MIC); format: cell-based; settings: B. megaterium strain DSM319, LB broth, about 3 × 10^6 CFU/mL, 30 °C overnight, OD 600 nm, compound in DMSO, three biological repeats with three technical repeats
Method: The antibiotic activities of 1, 2, Cu(II)[1]Cl2 and Cu(II)[2]Cl2 were measured against B. megaterium strain DSM319 (see the ESI ^†).
Metal ion chelating Aib foldamers 1 and 2 bear a novel amino-terminal copper and nickel (ATCUN) binding motif; other ATCUN motifs are reported to increase antibiotic properties by generating reactive oxygen species upon metal binding.24 Furthermore many copper-containing metallodrugs have been stu died for their anticancer25 and antibiotic properties.26 Introducing the Cu(II)(BPTA) group onto the Aib octamer unit […]
antibiotic studies of long Aib n oligomers (n ≥ 10).15
7.1 Antimicrobial assays: minimum inhibitory concentrations (MIC)
The used procedure was developed by modification of published methods.27 The antimicrobial activity of the appropriate compound was tested against B. megaterium strain DSM319. Bacteria were grown over night at 30 °C in standard lysogeny broth (LB) broth from a single colony overnight. An aliquot from this suspension was taken and diluted (1:100) in fresh LB broth until the suspension reached the mid - logarithmic phase (OD600 = 0.4). […]
The plates were shaken for about 30 seconds and the optical density (OD) was measured at 600 nm.
Afterwards the plates were incubated at 30 °C under aerobic conditions with shaking overnight. The absorbance was then measured at 600 nm using a ClarioStar plate reader. […]

human erythrocytes [3] = experiment: Haemolysis assay; format: cell-based; settings: fresh blood diluted with PBS (1:2), compound in DMSO, 37 °C for 30 min, triplicates, read-out: EC50 for haemolysis (haemoglobin release)
human erythrocytes [4] = settings: in phosphate buffer after 1 h incubation; read-out: reported EC50 for haemolysis; cited from earlier work
From the text: Although alamethicin is a very active channel former, its use in the clinic is hampered by its high haemolytic activity.[52]

[5] = cited from earlier work
From the text: Application of Hille's equation[47] to estimate the inner channel diameters for both Cu(II)[2]Cl2 and Cu(II)[2]Cl·HCO3 provided approximate pore diameters of 1.5 nm, 2.1 nm and 2.3 nm for the different conductance levels (see the ESI ^†). […] Planar bilayer conductance (PBC) studies Alamethicin provides a useful comparison to the data reported in the manuscript and in the ESI.

## alamethicin
[1]
  kobs of Cl− transport (lucigenin assay): 0.0073 s⁻¹
[2]
  MIC, minimum inhibitory concentration: 6 ± 2 µM
Human erythrocytes [3]
  EC50: 1400 nM
Human erythrocytes [4]
  EC50: 1450 nM
[5]
  proposed pore diameter, hexameric pores: 1.1 nm
  proposed pore diameter, octameric pores: 1.8 nm
